Results published in patent US9663528B2, “Substituted 1,2,3,4,6,8,12,12a-octahydro-1,4-methanodipyrido[1,2-a:1',2'-d]pyrazines and methods for treating viral infections” (priority 2012, dated 2017).
Read-outs that look alike come from different tables or passages of the source. Each block holds one compound with its values, some of them ahead of it.

What was measured:
[1] = test system: MT4 cells; assay: in vitro
[2] = test system: HIV-IIIb; assay: Antiviral assay in MT4 cells; format: cell-based; conditions: MT4 cells infected with HIV-IIIb, 5 days incubation; read-out: EC50 nM in MT-4
Description: For the antiviral assay utilizing MT4 cells, 0.4 μL of […] test concentration of 3-fold serially diluted compound in DMSO was added to 40 μL of cell growth medium (RPMI 1640, 10% FBS, 1% penicilline/Streptomycine, 1% L-Glutamine, 1% HEPES) in each well of 384-well assay plates (10 concentrations) in quidruplicate.
1 mL aliquots of 2×10^6 MT4 cells are pre-infected for 1 and 3 hours respectively at 37° C. with 25 μL (MT4) or of either cell growth medium (mock-infected) or a fresh 1:250 dilution of an HIV-IIIb concentrated ABI stock (0.004 m.o.i. for MT4 cells). Infected and uninfected cells are diluted in cell growth medium and 35 μL of 2000 (for MT4) cells is added to each well of the assay plates.
Assay plates were then incubated in a 37° C. incubator. After 5 days of incubation, 25 μL of 2× concentrated CellTiter-Glo™ Reagent (catalog #G7573, Promega Biosciences, Inc., Madison, Wis.) was added to each well of the assay plate. Cell lysis was carried out by incubating at room temperature for 2-3 minutes, and then chemiluminescence was read using the Envision reader (PerkinElmer).

[3] = molecular target: PXR (Homo sapiens (Human), UniProt O75469); assay: Human PXR activation assay (luciferase reporter gene assay, DPX2 cells); format: cell-based; conditions: for Emax at 24 h, 15 µM: human
Description: A stably transformed tumor cell line (DPX2) was plated on 96-well microtiter plates. DPX2 cells harbor the human PXR gene (NR112) and a luciferase reporter gene linked to two promoters identified in the human CYP3A4 gene, namely XREM and PXRE. […] The number of viable cells was determined and the reporter gene activity was assessed. Positive control: […]

[4] = molecular target: OCT2 (Homo sapiens (Human), UniProt O15244); assay: OCT2 inhibition assay (14C-TEA uptake, OCT2-transfected MDCKII cells); format: cell-based
Description: On assay day, cells were trypsinized and resuspended in Krebs-Henseleit Buffer (KHB), pH 7.4 at […]. Cells were preincubated for 15 min in assay plate before addition of test compound or substrate. Test compounds were serially diluted in DMSO and then spiked (2 μL) into in 0.4 mL KHB buffer containing wild-type or OCT2-transfected cells and incubated for 10 minutes. Assay was initiated with the addition of 0.1 mL of 100 μM ^14C-TEA in KHB buffer (20 μM final concentration after mixing). The concentration of TEA is based on the Km. After 10 minutes of incubation, the assay mixture was quenched with addition of 0.5 mL of ice-cold 1×PBS buffer. Samples were then centrifuged at 1000 rpm for 5 min and supernatants were removed. Wash steps were repeated four times with ice-cold PBS. Finally, the cell pellets were lysed with 0.2N NaOH and let sit at room temperature for at least 30 min to ensure complete lysis. Samples were then counted on liquid scintillation counter and dpm counts were used to perform the following calculations.

[5] = Pharmacokinetic analysis following intravenous administration to beagle dogs; format: in vivo; conditions: male, dog, 0.5 mg/kg; for Vd: read-out: Vss
Description: (§1) Pharmacokinetic analysis was performed on various test compounds following intravenous or oral administration to beagle dogs.
(§2) For pharmacokinetic analysis of intravenously administered compounds, the test compounds were formulated in 5% Ethanol, 55% PEG 300, and 40% water at 0.1 mg/mL for IV infusion. For pharmacokinetic analysis of orally administered compounds, the test compounds were formulated as an aqueous suspension in 0.1% Tween 20, 0.5% HPMC LV 100 in Di Water at 1 mg/kg.
(§3) Each dosing group consisted of 3 male, non-naïve purebred beagle dogs. At dosing, the animals weighed between 10 to 13 kg. The animals were fasted overnight prior to dose administration and up to 4 hr after dosing. For studies of intravenous administration, the test article was administered to the animals by intravenous infusion over 30 min. The rate of infusion was adjusted according to the body weight of each animal to deliver a dose of 0.5 mg/kg. For studies of oral administration, the test article was administered according to the body weight of each animal to deliver a dose of 1 mg/kg.
For pharmacokinetic analysis of intravenously administered compounds, serial venous blood samples (approximately 1 mL each) were taken from each animal at 0, 0.250, 0.483, 0.583, 0.750, 1.00, 1.50, 2.00, 4.00, 8.00, 12.0, and 24.0 hours after dosing. The blood samples were collected into Vacutainer™ tubes containing EDTA-K2 as the anti-coagulant and were immediately placed on wet ice pending centrifugation for plasma. An LC/MS/MS method was used to measure the concentration of the test compound in plasma. An aliquot of 100 μL of each plasma sample was added to a clean 96 well plate, and 400 μL of cold acetonitrile/internal standard solution (ACN)/(ISTD) was added. After protein precipitation, an aliquot of 110 μL of the supernatant was transferred to a clean 96-well plate and diluted with 300 μL of water. An aliquot of 25 μL of the above solution was injected into a TSQ Quantum Ultra LC/MS/MS system utilizing a Hypersil Gold C18 HPLC column (50×3.0 mm, 5 μm; Thermo-Hypersil Part #25105-053030). An Agilent 1200 series binary pump (P/N G1312A Bin Pump) was used for elution and separation, and an HTS Pal autosampler (LEAP Technologies, Carrboro, N.C.) was used for sample injection. A TSQ Quantum Ultra triple quadrupole mass spectrometer was utilized in selective reaction monitoring mode (Thermo Finnigan, San Jose, Calif.). Liquid chromatography was performed using two mobile phases: mobile phase A contained 1% acetonitrile in 2.5 mM ammonium formate aqueous solution with pH of 3.0, and mobile phase B contained 90% acetonitrile in 10 mM ammonium formate with pH of 4.6. Non-compartmental pharmacokinetic analysis was performed on the plasma concentration-time data. The resulting data are shown in the first three columns of Table 4. In Table 4, CL refers to clearance, which characterizes the rate at which drug is removed from plasma. The lower the clearance of a drug is, the longer the elimination half-life is in the body. Vss refers to the steady state volume of distribution and indicates how well a drug is distributed into the tissues. The larger the Vss is, the longer the elimination half-life is in the body. MRT refers to mean residence time, which is a measure of the average time molecules exist in the body.

[6] = in vitro; conditions: human, CC50 nM in MT-4
[7] = Pharmacokinetic analysis following oral administration to beagle dogs; format: in vivo; conditions: 1 mg/kg
Description: as §1, §2, §3
For pharmacokinetic analysis of orally administered compounds, serial venous blood samples (approximately 0.3 mL each) were taken from each animal at time points of 0, 0.25, 0.50, 1.0, 2.0, 4.0, 6.0, 8.0, 12.0 and 24.0 hours after dosing. Blood samples were collected, prepared and analyzed in a similar way to the intravenous studies described above. Non-compartmental pharmacokinetic analysis was performed on the plasma concentration-time data. The resulting data are shown in the last three columns of Table 4. In Table 4, F (%) refers to oral bioavailability. Cmax refers to the peak plasma concentration of the compound after administration. AUC refers to area under the curve and is a measure of total plasma exposure of the indicated compound.

[8] = plasma, beagle dogs, IV infusion over 30 min
[9] = OCT2 mediated uptake of 14C-TEA (20 μM), MDCKII cells, read-out: IC50

PXR, sequence (O75469 whole entry): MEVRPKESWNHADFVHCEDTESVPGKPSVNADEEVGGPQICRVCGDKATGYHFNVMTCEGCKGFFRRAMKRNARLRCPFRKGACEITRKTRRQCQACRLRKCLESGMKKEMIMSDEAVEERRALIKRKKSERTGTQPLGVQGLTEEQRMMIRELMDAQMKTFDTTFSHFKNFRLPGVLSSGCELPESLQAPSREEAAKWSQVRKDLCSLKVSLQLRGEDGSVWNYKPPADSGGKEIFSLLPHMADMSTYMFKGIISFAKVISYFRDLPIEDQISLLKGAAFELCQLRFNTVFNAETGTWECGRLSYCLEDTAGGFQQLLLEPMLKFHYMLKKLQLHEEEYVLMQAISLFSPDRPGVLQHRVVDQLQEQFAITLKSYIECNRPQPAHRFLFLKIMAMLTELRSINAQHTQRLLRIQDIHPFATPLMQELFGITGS
OCT2, sequence (O15244 whole entry): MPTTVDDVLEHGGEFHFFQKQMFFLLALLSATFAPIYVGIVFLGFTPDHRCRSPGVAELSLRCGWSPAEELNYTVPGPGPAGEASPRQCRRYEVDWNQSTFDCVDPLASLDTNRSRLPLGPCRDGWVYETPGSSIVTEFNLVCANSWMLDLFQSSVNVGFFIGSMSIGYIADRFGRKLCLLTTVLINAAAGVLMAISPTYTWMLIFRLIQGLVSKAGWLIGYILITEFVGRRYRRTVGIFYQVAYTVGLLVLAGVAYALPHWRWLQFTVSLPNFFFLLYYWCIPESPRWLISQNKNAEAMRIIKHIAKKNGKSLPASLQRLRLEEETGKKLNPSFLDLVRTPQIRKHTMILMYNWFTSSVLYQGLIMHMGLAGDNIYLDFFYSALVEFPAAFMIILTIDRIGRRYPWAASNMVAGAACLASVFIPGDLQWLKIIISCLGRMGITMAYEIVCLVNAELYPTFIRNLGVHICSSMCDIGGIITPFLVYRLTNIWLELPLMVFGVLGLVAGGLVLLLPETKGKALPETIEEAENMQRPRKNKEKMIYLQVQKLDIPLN

SMILES: O=C(NC1(c2ccc(F)cc2F)CC1)c1cn2c(c(O)c1=O)C(=O)N1[C@@H]3CC[C@@H](C3)O[C@H]1C2 [Compound 30, (2S,5R,13aS)-N-(1-(2,4-difluorophenyl)cyclopropyl)-8-hydroxy-7,9-dioxo-2,3,4,5,7,9,13,13a-octahydro-2,5-methanopyrido[1′,2′:4,5]pyrazino[2,1-b][1,3]oxazepine-10-carboxamide]
- CC50 ([1]; human, 5 days): 6.83 µM
- EC50 [2]: 4 nM

SMILES: O=C(NCc1c(F)cc(F)cc1F)c1cn2c(c(O)c1=O)C(=O)N1[C@H]3CC[C@H](CC3)[C@@H]1C2 [Compound 102, (1S,4S,12aR)-7-hydroxy-6,8-dioxo-N-(2,4,6-trifluorobenzyl)-1,2,3,4,6,8,12,12a-octahydro-1,4-ethanodipyrido[1,2-a:1′,2′-d]pyrazine-9-carboxamide]
- % Emax at 15 μM ([3]; 15 μM, relative to maximum fold induction by 10 or 20 μM rifampicin, DPX2 cells, 24 hours): 123%
- CC50 [1]: 12 µM
- EC50 [2]: 2.3 nM

SMILES: O=C(NCc1c(F)cc(F)cc1F)c1cn2c(c(O)c1=O)C(=O)N1[C@H]3CC[C@H](C3)[C@@H]1C2 [Compound 41, (1R,4S,12aR)-7-hydroxy-6,8-dioxo-N-(2,4,6-trifluorobenzyl)-1,2,3,4,6,8,12,12a-octahydro-1,4-methanodipyrido[1,2-a:1′,2′-d]pyrazine-9-carboxamide]
- IC50 [4]: 2.82 µM
- Emax at 24 h, 15 µM [3]: 11.5%
- MRT ([5]; beagle, in vivo, iv): 7.5 h
- clearance ([5]; beagle, in vivo, iv): 0.25 mL/min/kg
- Vd [5, 8]: 0.11 L/kg
- CC50 at 5 days [6]: 15700 nM
- AUC ([7]; male, beagle, dog, in vivo, po): 16.3 µM·h
- Cmax ([7]; male, beagle, dog, in vivo, po): 2.4 µM
- F (%) aqueous suspension ([7]; male, beagle, dog, in vivo, po): 10.7%

SMILES: O=C(NCc1ccc(F)cc1F)c1cn2c(c(O)c1=O)C(=O)N1[C@H]3CC[C@H](C3)O[C@@H]1C2 [Compound 2, (2R,5S,13aR)-N-(2,4-difluorobenzyl)-8-hydroxy-7,9-dioxo-2,3,4,5,7,9,13,13a-octahydro-2,5-methanopyrido[1′,2′:4,5]pyrazino[2,1-b][1,3]oxazepine-10-carboxamide]
- IC50 [4, 9]: 0.24 µM
- Emax at 24 h, 15 µM [3]: 4.5%
- MRT ([5]; beagle, in vivo, iv): 6.5 h
- clearance ([5]; beagle, in vivo, iv): 0.5 mL/min/kg
- Vd [5, 8]: 0.2 L/kg
- CC50 at 5 days [6]: 3110 nM
- AUC ([7]; male, beagle, dog, in vivo, po): 66.1 µM·h
- Cmax ([7]; male, beagle, dog, in vivo, po): 7.8 µM
- F (%) aqueous suspension ([7]; male, beagle, dog, in vivo, po): 40.7%

SMILES: O=C(NCc1ccc(F)cc1F)c1cn2c(c(O)c1=O)C(=O)N1[C@@H]3CC[C@@H](C3)O[C@H]1C2 [Compound 3, (2S,5R,13aS)-N-(2,4-difluorobenzyl)-8-hydroxy-7,9-dioxo-2,3,4,5,7,9,13,13a-octahydro-2,5-methanopyrido[1′,2′:4,5]pyrazino[2,1-b][1,3]oxazepine-10-carboxamide]
- IC50 [4, 9]: 0.25 µM
- Emax at 24 h, 15 µM [3]: 7.5%
- MRT ([5]; beagle, in vivo, iv): 4.9 h
- clearance ([5]; beagle, in vivo, iv): 0.783 mL/min/kg
- Vd [5, 8]: 0.23 L/kg
- CC50 at 5 days [6]: 38400 nM
- AUC ([7]; male, beagle, dog, in vivo, po): 9.2 µM·h
- Cmax ([7]; male, beagle, dog, in vivo, po): 1.2 µM
- F (%) aqueous suspension ([7]; male, beagle, dog, in vivo, po): 18.7%

- EC50 [2]: 2.1 nM
SMILES: O=C(NCc1c(F)cc(F)cc1F)c1cn2c(c(O)c1=O)C(=O)N1[C@H]3CC[C@H](CC3)[C@H]1C2 [Compound 101, (11R,4R,12aS)-7-hydroxy-6,8-dioxo-N-(2,4,6-trifluorobenzyl)-1,2,3,4,6,8,12,12a-octahydro-1,4-ethanodipyrido[1,2-a:1′,2′-d]pyrazine-9-carboxamide]
- CC50 [1]: 11.6 µM

SMILES: O=C(NCc1ccc(F)cc1F)c1cn2c(c(O)c1=O)C(=O)N1[C@H]3CC[C@H](C3)[C@@H]1C2 [Compound 47, (1R,4S,12aR)-N-(2,4-difluorobenzyl)-7-hydroxy-6,8-dioxo-1,2,3,4,6,8,12,12a-octahydro-1,4-methanodipyrido[1,2-a:1′,2′-d]pyrazine-9-carboxamide]
- IC50 [4, 9]: 6.2 µM
- Emax at 24 h, 15 µM ([3]; 15 μM, relative to maximum fold induction by 10 or 20 μM rifampicin, DPX2 cells, 24 hours, read-out: % Emax at 15 μM): 11%
- Vd ([5]; in vivo, beagle dogs, IV infusion over 30 min): 0.1 L/kg
- clearance ([5]; plasma, beagle dogs, IV infusion over 30 min, read-out: CL (converted)): 0.233 mL/min/kg
- MRT ([5]; plasma, beagle dogs, IV infusion over 30 min, read-out: MRT): 7.4 h
- CC50 at 5 days [6]: 11300 nM
- F (%) aqueous suspension ([7]; beagle dogs, oral, aqueous suspension): 12.6%
- AUC ([7]; male, dog, plasma, beagle dogs, oral, aqueous suspension, read-out: AUC (μM*h) aqueous suspension): 20.4 µM·h
- Cmax ([7]; male, dog, plasma, beagle dogs, oral, aqueous suspension, read-out: Cmax (μM) aqueous suspension): 2.8 µM
